MIC data for 5 compounds are collected here from ChEMBL document CHEMBL3860027, “α-Pyrones with Diverse Hydroxy Substitutions from Three Marine-Derived Nocardiopsis Strains” (2016).

SMILES strings stand for the structures. Converted amounts (≈) assume the structure as drawn.

The first test deals with Bacillus subtilis. Briefly: Antibacterial activity against Bacillus subtilis SCSIO BS01 by broth microdilution method. It counts as functional. On the technique in general: Dilution methods test growth across graded concentrations, often in twofold steps.
Take `CCc1ccc(CC(C)C)c(=O)o1`: the MIC was 64 µg/mL (≈ 355 µM).

Consider `CC[C@@H](C)c1ccc(C)c(=O)o1`, for which the minimal inhibitory concentration (MIC) amounted to 64 µg/mL (≈ 385 µM).

A further test relates to Micrococcus luteus. Briefly: Antibacterial activity against Micrococcus luteus SCSIO ML01 by broth microdilution method. The format is functional.
Consider `CCc1ccc(CC(C)C)c(=O)o1`, for which the lowest concentration to inhibit growth (MIC) was 32 µg/mL (≈ 178 µM).

In turn, `CC(C)Cc1ccc(C(C)O)oc1=O` (racemic) had an MIC of 16 µg/mL (≈ 81.5 µM).

For the compound `CCc1ccc(CC(C)(C)O)c(=O)o1`, the lowest concentration to inhibit growth (MIC) was 32 µg/mL (≈ 163 µM).

In turn, `CCc1ccc([C@H](C)CC)oc1=O` displayed an MIC of 32 µg/mL (≈ 178 µM).

For orientation: MIC means the lowest concentration that inhibits growth of the organism. Higher therefore signals a less susceptible organism.
